Test results published in patent publication US10907212B2, “Inhibitors of cell adhesion” (Regents of the University of Minnesota, priority 2016, dated 2021).
“Also recorded” adds a separate entry of the source. Where no end group is shown, it is not given here.

Columns and labels:
[1] = system: nectin 4 protein on NIH:OVCAR-5 cells; assay: Effect of peptides on anti-Nectin-4 antibody binding to cells as determined by flow cytometry; assay type: cell-based, human; conditions: for IgG MFI: IgG control primary antibody; for nectin-4 antibody binding compared to untreated control cells (in words): flow cytometry; for Flow binding: summary table, Nectin-4 antibody binding relative to control = 100
Procedure: Confluent monolayers of cells were detached from 75 cm^2 tissue culture flasks using Accutase cell dissociation buffer (Innovative Cell Technologies, San Diego, Calif.), washed, and labeled with mouse IgG or mAbs against Nectin-4 or Nectin-1 (2.5 μg/10^6 cells) in Flow Buffer [phosphate buffered saline (PBS) containing 2.5% newborn calf serum and 0.02% sodium azide] for 30 min at 4° C.. Cells were washed and incubated with goat anti-mouse IgG F(ab′)2 (Jackson ImmunoResearch, West Grove, Pa.), then washed again and incubated with streptavidin-allophycocyanin conjugate (Jackson ImmunoResearch, West Grove, Pa.) for 30 min each. Cells were washed and fixed in Flow Buffer containing 1% formaldehyde and analyzed in the University of Minnesota Flow Cytometry Resource with a BD Accuri™ C6 flow cytometer (BD Biosciences, San Jose, Calif.) using the Accuri™ software.
Briefly, NIH:OVCAR-5 cells that natively express a moderate amount of nectin 4 protein were incubated for 30 minutes in 150 μg/mL of soluble peptide in DMSO. After incubation, the cells were washed, and then triple antibody stained using mouse anti-nectin 4 (or IgG control) primary antibody, biotinylated goat anti-mouse secondary antibody, and streptavidin APC tertiary antibody. Finally, utilizing the University of Minnesota flow core's Accuri C6 flow cytometer, the relative antibody binding affinity for control and peptide-treated samples was quantitated and compared. Data was collected for each of the 57 peptides generated.

[2] = system: ovarian cancer cell aggregation and spheroid formation; assay: Spheroid assay for peptides (visual scale +1 to +5); assay type: cell-based, human; conditions: for Spheroid-24: 24 hrs, Control = 2; for Spheroid-24 / Spheroid-48: visual scale of +1 to +5; for Spheroid-48: 48 hrs, Control = 4
Procedure: Spheroids were formed from the NIH:OVCAR5 cell lines described above using the liquid overlay method. One milliliter of a single cell suspension was seeded at a concentration of 50,000 cells/ml in OptiMEM® media, into 24-well tissue culture plates coated with 0.5% Seakem agarose (in complete RPMI-1640). Plates were incubated at 37° C. in a humidified incubator with 5% CO2. At various time points up to 5 days, the plates were removed from the incubator and the spheroids were photographed with a Nikon CoolPix digital camera mounted on an Olympus CK2 inverted microscope with a 4× objective. The size of the spheroids was determined using the measure tool in Adobe Photoshop. The largest spheroids were quantified (20-90 spheroids/well), in a minimum of 8 wells, for a total of >300 spheroids per cell type.
The clinical relevance is that by blocking the formation of spheroids, the cells will be more sensitive to chemotherapy (which targets the single cells that proliferate more rapidly than spheroids).
The spheroid assay for peptides 1-30 were scored using a visual scale of +1 to +5. The controls were scored at +2 (24 hrs) and +4 (48 hrs). […] It may be harder to visually assess the size at 24 hours, since the spheroids are relatively small, but and perhaps some of the peptides are affecting cell division, and that is why the spheroids are smaller than the controls at 48 hours, but not 24 hrs (this can be easily assayed with an MTT assay).

[3] = Run Four, 150 μg/mL peptide, 30 minutes, Control 4 = 9,631.58
[4] = Run Four, Control 4 = 9.387504873
[5] = Run Four, antibody binding relative to Control 4 = 100
[6] = Run One, 150 μg/mL peptide, 30 minutes, Control 1 = 15,015
[7] = Run One, 150 μg/mL peptide, 30 minutes, Control 1 = 1,670
[8] = Run One, antibody binding relative to Control 1 = 100.00
[9] = Run Three, 150 μg/mL peptide, 30 minutes, Control 3 = 13,070.20
[10] = Run Three, antibody binding relative to Control 3 = 100.00

Substance	Spheroid-24 [2]	Spheroid-48 [2]	N4 MFI [1, 6]	IgG MFI [1, 7]	N4 MFI/IgG MFI ([1]; Run One, Control 1 = 8.99)	nectin-4 antibody binding, percent of control [1, 8]	nectin-4 antibody binding compared to untreated control cells (in words) ([1]; 150 μg/mL peptide)	Flow binding [1] [%]	further results
ACIVNYHMDRFKES-NH2 (listed as Homo sapiens) [Peptide 46]	–	–	–	–	–	–	–	–	N4 MFI [1, 3]: 10,569.90; N4 MFI/IgG MFI [1, 4]: 6.623; IgG MFI ([1]; Run Four, Control 4 = 1,026): 1596; nectin-4 antibody binding, percent of control [1, 5]: 104.3
AEASVRGLEDQNLW-NH2 (listed as Homo sapiens) [Peptide 19]	1	2	7,278	2,254	3.23	37.65	reduction in nectin-4 antibody binding; also recorded: reduced antibody binding	38	spheroid size (in words) [2]: reduced spheroid size
AWARVDAGEGAQEL-NH2 (listed as Homo sapiens) [Peptide 4]	1	2	8,687	2,199	3.95	48.62	reduction in nectin-4 antibody binding	49	–
CKADANPPATEYHWT-NH2 (listed as Homo sapiens) [Peptide 50]	–	–	–	–	–	–	–	–	N4 MFI [1, 3]: 11,341.38; N4 MFI/IgG MFI [1, 4]: 4.306; IgG MFI ([1]; Run Four, Control 4 = 1,026): 2634; nectin-4 antibody binding, percent of control [1, 5]: 101.2
CLSEGQPPPSYNWT-NH2 (listed as Homo sapiens) [Peptide 21]	1	2	–	–	–	–	–	–	N4 MFI ([1]; Run Two, 150 μg/mL peptide, 30 minutes, Control 2 = 49,491): 34,351; N4 MFI/IgG MFI ([1]; Run Two, Control 2 = 9.46): 8.61; IgG MFI ([1]; Run Two, Control 2 = 5,233): 3,989; nectin-4 antibody binding, percent of control ([1]; Run Two, antibody binding relative to Control 2 = 100.00): 68.60
EAQNRTLFFKGPINY-NH2 (listed as Homo sapiens) [Peptide 52]	1	2	–	–	–	–	increased nectin-4 antibody	138	N4 MFI ([1]; Run Five, 150 μg/mL peptide, 30 minutes, Control 5 = 17,768.90): 20,692.13; N4 MFI/IgG MFI ([1]; Run Five, Control 5 = 2.142155332): 2.717; IgG MFI ([1]; Run Five, Control 5 = 8,294.87): 7,617.02; nectin-4 antibody binding, percent of control ([1]; Run Five, antibody binding relative to Control 5 = 100): 138
ECRVSTFPAGSFQA-NH2 (listed as Homo sapiens) [Peptide 9]	–	3	8,578	1,886	4.55	50.15	reduction in nectin-4 antibody binding	50	–
EGSPAPSVTWDTEV-NH2 (listed as Homo sapiens) [Peptide 13]	1	2	15,623	3,720	4.20	89.19	–	–	–
ELALLHSKYGLHVS-NH2 (listed as Homo sapiens) [Peptide 5]	–	3	11,668	1,711	6.82	74.61	–	–	–
ESLTLNVQYEPE-NH2 (listed as Homo sapiens) [Peptide 47]	1	2	–	–	–	–	–	–	N4 MFI [1, 3]: 11,949.18; N4 MFI/IgG MFI [1, 4]: 6.679; IgG MFI ([1]; Run Four, Control 4 = 1,026): 1789; nectin-4 antibody binding, percent of control [1, 5]: 118.1
ESQLNLTVMAKPTN-NH2 (listed as Homo sapiens) [Peptide 39]	–	–	–	–	–	–	reduction in nectin-4 antibody binding	57	N4 MFI [1, 9]: 8,719.33; N4 MFI/IgG MFI ([1]; Run Three, Control 3 = 9.83): 4.24; IgG MFI ([1]; Run Three, Control 3 = 1330): 2056; nectin-4 antibody binding, percent of control [1, 10]: 56.76
GFIGTDVVLHCSFA-NH2 (listed as Homo sapiens) [Peptide 31]	–	–	–	–	–	–	increased nectin-4 antibody binding	117	N4 MFI [1, 9]: 15,498.21; N4 MFI/IgG MFI ([1]; Run Three, Control 3 = 9.83): 8.83; IgG MFI ([1]; Run Three, Control 3 = 1330): 1756; nectin-4 antibody binding, percent of control [1, 10]: 117.05
